# According to US20220409696A1, “Heparin-Associated Polypeptides and Uses Thereof” (Juvena Therapeutics, Inc., priority 2021, published 2022):
# What was measured:
# [1] = system: Mouse myoblasts; assay: Mouse myoblast fusion index with sodium butyrate; type: cell-based; settings: 48 h
# Procedure: Mouse myoblasts were treated with PBS or sodium butyrate at concentrations 0.1 nM, 1 nM, and 10 nM. Myoblasts were cultured for 48 hours, with fresh media added every 24 hours. Cells were pulsed for 2-5 hours with EdU (30 uM), ethanol fixed, stained with Hoescht 3342, immunostained for proliferation—as measured by the percent of cells staining positive for EdU (% EdU)-, and immunostained for differentiation—as measured by the increase in cellular area staining positive for embryonic myosin heavy chain (% eMyHC) relative to the negative controls, which received media and vehicle only. […] Significance was determined by a p-value less than 0.05 by the one-way ANOVA Tukey Honest Significant Difference test.
# FIG. 3A: Bar graph of fusion index in response to sodium butyrate (NaBut) compared to vehicle. Myoblast were cultured 48 h in the presence of NaBut at indicated dose. Fresh media and NaBut were added every 24 h. Mean∓S.D. Table with quantitation of fusion index and p-values also shown. (*p<0.05 by Student's Two-tailed T-test, n=3−5)
# [2] = system: human myoblast cells; assay: Human myoblast differentiation (% eMyHC area), IGF2 and/or sodium butyrate; type: cell-based
# Procedure: Human myoblast cells were treated with either PBS (vehicle), IGF2 (15 ng/mL), sodium butyrate, or IGF2 and sodium butyrate. Fresh media was added every 24 hours. After 96 hours, cells were pulsed for 2-5 hours with EdU (30 uM), ethanol fixed, stained with Hoescht 3342, immunostained for proliferation—as measured by the percent of cells staining positive for EdU (% EdU)-, and immunostained for differentiation—as measured by the increase in cellular area staining positive for embryonic myosin heavy chain (% eMyHC) relative to the negative controls, which received media and vehicle only. The total area of eMyHc positive cells was analyzed, and treated cells were compared to cells treated with the vehicle alone. […] Significance was determined by a p-value less than 0.05 by the one-way ANOVA Tukey Honest Significant Difference test.
# FIG. 3C Bar graph quantitation of % Area eMyHC+ human myoblast in response to indicated treatment compared to IGF2 (15 ng/mL). Myoblast were cultured 96 h in the presence of IGF2 at indicated dose. Fresh media and IGF2 was added every 24 h.
# Human myoblast cells were treated with either PBS (vehicle), IGF2 (15 ng/mL), sodium butyrate, or IGF2 and sodium butyrate. Fresh media was added every 24 hours. After 48 hours, cells were pulsed for 2-5 hours with EdU (30 uM), ethanol fixed, stained with Hoescht 3342, immunostained for proliferation […] as measured by the percent of cells staining positive for EdU (% EdU)-, and immunostained for differentiation—as measured by the increase in cellular area staining positive for embryonic myosin heavy chain (% eMyHC) relative to the negative controls, which received media and vehicle only.
# Significance was determined by a p-value less than 0.05 by the one-way ANOVA Tukey Honest Significant Difference test.
# [3] = system: DM1 human myoblast; assay: Gene expression fold change in DM1 human myoblast; type: cell-based; settings: 48 h; BMP7 50 ng/mL, Butyrate 100 nM, IGF2 200 ng/mL
# Procedure: Myoblasts were cultured 48 h in the presence of factors (BMP7 50 ng/mL, Butyrate 100 nM, IGF2 200 ng/mL).
# Myoblasts were cultured 96 h in the presence of factors (IGF2 200 ng/mL). […] Myoblasts were cultured 48 h in the presence of factors (IGF2 200 ng/mL).
# RNA was isolated from each well (RNeasy Mini Kit, Qiagen) and cDNA was obtained by reverse-transcription (High Capacity Reverse Transcription Kit, Thermo Fisher Scientific). Real-time quantitative PCR was performed using QuantStudio3 (Thermo Fisher).
# IGF2 was tested individually for its ability to promote proliferation and/or fusion of human muscle progenitor cells from an individual with myotonic dystrophy type 1 (hMD)—a muscular dystrophy caused by mutations in the DMPK1 gene. The effect of IGF2 on myogenic activity was assayed in biological triplicate across a range of concentrations centered around expected physiological levels by adding each factor to hMD myoblasts for 72 hours with daily media changes (DMEM+2% horse serum) and a second pulse of factors at the first media change. After 72 or 96 hours, cells were pulsed for 2-5 hours with EdU (30 uM), ethanol fixed, stained with Hoescht 3342, immunostained for proliferation—as measured by the percent of cells staining positive for EdU (% EdU)-, and immunostained for differentiation—as measured by the increase in cellular area staining positive for embryonic myosin heavy chain (% eMyHC) relative to the negative controls, which received media and vehicle only. Wells were imaged on a Keyence BZ-100 at 4×, the images quantified in Cell Profiler, and the statistics were computed in R. Additionally, RNA was extracted from myoblast and select transcript abundances quantified by qPCR.
# [4] = system: human myoblast cells; assay: Differentiation of human myoblast cells, MyHC immunostaining; type: cell-based; settings: for % MyHC: 96 hours with daily media change; for percentage area of MyHC compared with vehicle control: 96 hours, One-Way ANOVA Tukey
# Procedure: FIG. 1A: The suspension CHO cells were transiently transfected with the IGF2-hFcm encoding plasmid. IGF2-hFcm was affinity-purified by Protein A membrane column. The purified IGF2-hFcm was added into the culture of human myoblast cells for 96 hours. Myosin heavy chain (MyHC) was immunostained and imaged by a fluorescence microscope.
# FIG. 1B: The suspension CHO cells were transiently transfected with the IGF2-LhFc4 encoding plasmid. IGF2-LhFc4 was affinity-purified by Protein A membrane column. The purified IGF2-LhFc4 was added into the culture of human myoblast cells for 96 hours with daily media change. Myosin heavy chain (MyHC) was immunostained and imaged by a fluorescence microscope.
# FIG. 2A: The suspension CHO cells were transiently transfected with the HSA-L-IGF2R61A encoding plasmid. HSA-L-IGF2R61A was affinity-purified by Protein A membrane column. The purified HSA-L-IGF2R61A was added into the culture of human myoblast cells for 96 hours with daily media change. Myosin heavy chain (MyHC) was immunostained and imaged by a fluorescence microscope.
# Suspension CHO cells were transiently transfected with the IGF2-hFcm encoding plasmid. After four days, the culture supernatants were collected and IGF2-hFcm was affinity-purified by Protein A membrane column. The purified IGF2-hFcm was added into the culture of human myoblast cells. Myosin heavy chain (MyHC) was immunostained and imaged by a fluorescent microscope. After quantification of the stained MyHC, the percentage area of MyHC was calculated as the percent of pixels within the field that are illuminated above background in the stained channel. […] Significance was determined by a p-value less than 0.05 by the one-way ANOVA Tukey Honest Significant Difference test.
# [5] = Backbone cleavage on expression from CHO cells (reducing SDS-PAGE, Western blot)
# Procedure: The amino acid backbone of IGF2 is cleaved when expressed from Chinese Hamster Ovary (CHO) cells (FIG. 13A) as visualized on a reducing SDS-PAGE and Western blot (FIG. 13B). The CHO cells were grown in a 37° C. incubator with a humidified atmosphere of 8% CO2 on an orbital shaker platform with a shaking speed 125 rpm to reach 4E6 cells/mL, followed by transferring the calculated volume of cells to fresh, pre-warmed ExpiCHO™ Expression Medium in a shake flask. Incubated flasks in a 37° C. incubator with a humidified atmosphere of 8% CO2 shook on an orbital shaker platform until cultures reached a density of 4×106-6×10^6 viable cells/mL. After mixing each plasmid with 100 ul SFM in a microtube; ExpiFectamine (8 ul×10.5=84 ul) with OptiPro medium (92 ul×10.5=966 ul) in a microtube; adding 100 ul into the plasmid tube and mix by pipetting; After 5 min, add 200 ul into each well and swirl to mix. mix enhancer (15×10.2=153 ul) with feed (600×10.2=6.12 ml), add 615 ul into each well. Culture supernatant collected at intervals was spun down at low speed and high speed, then frozen at −80 deg. Aliquots were analyzed for protein concentration by nanodrop, and then an equivalent amount loaded onto 4-12% SDS-PAGE gels for molecular weight distribution analysis. […]
# [6] = Pharmacokinetics after intravenous injection in mice; type: in vivo
# Procedure: Murine pharmacokinetics (PK) represents the absorption, distribution, metabolism, and elimination of drugs from the body. The pharmacokinetic profile of the therapeutic polypeptides were determined in mice (10-12 weeks old). Mice were fed ad libitum and housed under controlled conditions of lighting (12-hour light/12-hour dark) and temperature (22-24° C.). Mice were allowed to acclimate for 3 days prior to the initiation of the experiment. Intravenous (IV) injection in 10-12 weeks old mice. Engineered mitogenic polypeptides concentrations in the samples were measured by ELISA. Various pharmacokinetics will be calculated as well as the absorption/elimination dynamics following different routes of administration.
# [7] = target: rhIGFBP3 (Homo sapiens, UniProt P17936); assay: Interaction with rhIGFBP3 by size exclusion chromatography (HPLC); type: binding; settings: 1:1 stoichiometric mixture
# Excerpt: In physiological conditions IGF2 will bind IGF binding proteins (IGFBPs). The purpose of this study was to determine if mutant sequences of IGF2 interact with IGFBPs. Retention time across a size exclusions chromatography column is proportional to the size of the molecule. Thus molecular interactions can be ascertained by a corresponding change in retention time on a size exclusions chromatography column.
# [8] = system: healthy human muscle precursors from person; assay: In vitro myogenesis assay, healthy human muscle precursors; type: cell-based
# Procedure: (§1) Human muscle progenitor cells (early passage myoblasts) were cultured and expanded in growth medium: Ham's F-10 (Gibco), 20% Bovine Growth Serum (Hyclone), 5 ng/mL FGF2 and 1% penicillin-streptomycin on Matrigel coated plates (1:300 matrigel: PBS), at 37° C. and 5% CO2. For experimental conditions, cells were plated at 40,000 cells/well on Matrigel coated 8-well chamber slides in 250-500 μL medium per well (1:100 matrigel: PBS) in human fusion medium: DMEM (Gibco)+2% horse serum (Hyclone). One hour after plating, human myoblasts were treated with 50% respective media: […] were cultured for 24 hours in the above conditions, at 37° C. in 10% CO2 incubator. BrdU (300 μM) in DMSO was added for 2 hours prior to fixation with cold 70% ethanol and stored at 4° C. until staining.
# (§2) Following permeabilization in PBS+0.25% Triton X-100, antigen retrieval was performed. Primary staining was performed with primary antibodies including: a species-specific monoclonal antibody for mouse anti-embryonic Myosin Heavy Chain (eMyHC, hybridoma clone 1.652, Developmental Studies Hybridoma Bank) and Rat-anti-BrdU (Abcam Inc. ab6326). […]
# [9] = system: human DM1 muscle precursors from person; assay: In vitro myogenesis assay, human DM1 muscle precursors; type: cell-based; settings: equimolar concentrations across a range of concentrations
# Procedure: as §1, §2
# Chain of rhIGFBP3 (P17936 28-291): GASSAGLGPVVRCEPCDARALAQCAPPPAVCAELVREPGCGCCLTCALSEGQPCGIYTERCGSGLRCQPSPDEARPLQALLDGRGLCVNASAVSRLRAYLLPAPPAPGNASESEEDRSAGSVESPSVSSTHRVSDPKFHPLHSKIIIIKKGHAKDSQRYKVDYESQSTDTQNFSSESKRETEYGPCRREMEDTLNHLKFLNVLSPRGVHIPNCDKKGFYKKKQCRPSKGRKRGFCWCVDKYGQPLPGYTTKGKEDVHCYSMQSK
compound,measurement,setting,value
"CCCC(=O)[O-].[Na+] [NaBut, sodium butyrate]",Fusion Index (nuclei/myotube),[1]; NaBut 0.1 nM,8.44 nuclei/myotube
same,Fusion Index (nuclei/myotube),[1]; NaBut 1 nM,31.60 nuclei/myotube
same,Fusion Index (nuclei/myotube),"[1]; NaBut 1 nM, listed as sodium butyrate",increased rates of fusion
same,Fusion Index (nuclei/myotube),[1]; NaBut 10 nM,14.00 nuclei/myotube
same,% eMyHC,"[2]; NaBut 1 nM, 96 h (FIG. 3B)",2.321%
same,% eMyHC,"[2]; NaBut 1 nM, after 48 hours (FIG. 4A)",2.321%
same,% eMyHC,"[2]; NaBut 10 nM, 96 h (FIG. 3B)",6.199%
same,% eMyHC,"[2]; NaBut 10 nM, after 48 hours (FIG. 4A)",6.199%
same,% eMyHC,"[2]; NaBut 100 nM, 96 h (FIG. 3B)",8.341%
same,% eMyHC,"[2]; NaBut 100 nM, after 48 hours (FIG. 4A)",8.341%
same,MYF5 myogenic gene expression fold change compared to FM (vehicle),[3],1.128
same,MYODI myogenic gene expression fold change compared to FM (vehicle),[3],1.095
same,MYOG myogenic gene expression fold change compared to FM (vehicle),[3],1.020
"HSA-IGF2: His tagged HSA fusion IGF2 with a long linker, SEQ ID NO 33",% MyHC,"[4]; FIG. 2A, Example 4",7.079%
same,cleavage of the amino acid backbone when expressed from CHO cells,[5],cleaved
"HSA-IGF2R61A: His tagged HSA fusion IGF2 R61A mutant with a long linker, SEQ ID NO: 34",percentage area of MyHC compared with vehicle control,[4],significantly higher
same,% MyHC,"[4]; FIG. 2A, Example 4",6.914%
same,serum half-life compared to the natural sequence of IGF2,[6]; mice,significantly improved
same,Half-life,"[6]; mice 10-12 weeks old, dose 10 mg/kg (HSA-IGF2R61A), 600 ug/kg (IGF2), Non-Compartment Analysis",20.81 h
same,interaction with rhIGFBP3 (mass shift in size exclusion chromatography),[7],preserved affinity
same,myogenic activity relative to IGF2,[8]; equimolar concentrations across a range of concentrations,equal activity
same,myogenic activity relative to HSA-IGF2,"[8]; equimolar concentrations, before or after size exclusion purification via HPLC",equal or increased activity
same,myogenic activity relative to IGF2,[9],equal activity
"IGF2-LhFc4: Human IGF2-linker3-hFc4 (human IgG4 Fc with S228P), SEQ ID NO 38",percentage area of MyHC compared with vehicle control,[4],significantly higher
same,% MyHC,"[4]; FIG. 1B, Example 3",6.237%
"IGF2-hFc4: Human IGF2-hFc4, SEQ ID NO 39",% MyHC,"[4]; FIG. 1B, Example 3",6.901%
"hFc4L-IGF2: hFc4-linker3-human IGF2, SEQ ID NO 40",% MyHC,"[4]; FIG. 1B, Example 3",5.820%
